Laboratory results from patent US6344457B1, “Amino acid derivatives inhibiting extracellular matrix metalloproteinase and TNF alpha release” (Chiesi Farmaceutici S.p.A., priority 1997, dated 2002).

Key:
[1] = target: T1, 72 kDa gelatinase of human origin (Homo sapiens, UniProt P08253); assay: Activity on gelatinase, synthetic substrate; format: biochemical; conditions: performed on synthetic substrate; read-out: C150 (nM) gelatinase 72 kDa**
T1 sequence (P08253 110-660): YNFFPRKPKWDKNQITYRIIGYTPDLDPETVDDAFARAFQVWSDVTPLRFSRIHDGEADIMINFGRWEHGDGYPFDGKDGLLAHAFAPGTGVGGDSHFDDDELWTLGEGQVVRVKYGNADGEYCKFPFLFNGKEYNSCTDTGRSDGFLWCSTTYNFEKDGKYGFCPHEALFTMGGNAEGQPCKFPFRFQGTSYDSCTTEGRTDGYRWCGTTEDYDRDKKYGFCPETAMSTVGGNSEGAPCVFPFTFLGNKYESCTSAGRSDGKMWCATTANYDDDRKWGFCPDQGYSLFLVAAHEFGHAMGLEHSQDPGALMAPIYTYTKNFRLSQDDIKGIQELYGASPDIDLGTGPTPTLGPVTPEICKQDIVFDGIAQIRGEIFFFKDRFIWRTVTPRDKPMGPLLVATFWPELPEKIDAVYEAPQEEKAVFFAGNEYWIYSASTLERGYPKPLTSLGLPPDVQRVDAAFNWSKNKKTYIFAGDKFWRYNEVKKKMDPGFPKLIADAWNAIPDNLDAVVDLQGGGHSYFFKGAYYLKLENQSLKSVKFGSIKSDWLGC
Procedure: The anti-gelatinase activity of the compounds according to the invention was determined on 72 kDa gelatinase of human origin, in accordance with the operating mode described by Knight, C. G., Willenbrock, F., Murphy, G. (FEBS Letters, 296 (3), 263-266, 1992).
The gelatinase was incubated at 37° C. for 10 minutes, and its activity was determined by the increase in fluorescence of the product of Mca-Pro-Leu breakdown of the Mca-Pro-Leu-Gly-Leu-Dpa-Ala-Arg-NH2 synthetic substrate.
The inhibiting concentration C150 for each compound was determined by measurement of the activity of the enzyme in the presence of the inhibitor at a concentration ranging between 10^−7 and 10^−12 M (the inhibitor is dissolved at a concentration of 10^−2 M in DMSO, then diluted successively by tenths in DMSO to 10^−4 M, then in the buffer: Tris, HCl 50 mM+0.05% Brij 35; CaCl2 10 mM; NaCl 0.15 M).

[2] = target: T2, collagenase of the human monocytic stock U937 (Homo sapiens, UniProt P03956); assay: Activity on collagenase; format: biochemical; conditions: radiomarked collagen, 27° C., 16 hours; read-out: C150 (nM) collagenase
T2 construct: the collagenase of the human monocytic stock U937; endogenous in cells; host or cells: U937 human monocytic cell line
T2 sequence (P03956 100-469): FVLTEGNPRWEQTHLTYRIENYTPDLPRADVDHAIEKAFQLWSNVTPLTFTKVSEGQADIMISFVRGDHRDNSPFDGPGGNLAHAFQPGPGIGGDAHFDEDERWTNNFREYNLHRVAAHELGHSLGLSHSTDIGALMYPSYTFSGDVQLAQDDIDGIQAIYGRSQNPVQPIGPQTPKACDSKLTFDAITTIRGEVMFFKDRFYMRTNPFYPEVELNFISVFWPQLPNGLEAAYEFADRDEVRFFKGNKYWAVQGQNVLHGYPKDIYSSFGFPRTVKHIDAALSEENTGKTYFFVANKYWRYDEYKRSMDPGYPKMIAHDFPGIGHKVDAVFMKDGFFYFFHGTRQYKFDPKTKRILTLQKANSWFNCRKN
Procedure: The collagenase was incubated at 27° C. for 16 hours with radiomarked collagen, and its activity was determined by the release of soluble peptides produced by the enzymatic breakdown of the collagen. The inhibiting concentration C150 for each compound was determined by measurement of the activity of the enzyme in the presence of the inhibitor at a concentration ranging between 10^−7 and 10^−12 M (the inhibitor is dissolved at a concentration of 10^−2 M in DMSO, then diluted successively by tenths in the buffer: Tris, HCl 150 mM, pH 7.5; NaCl 0.15 M; CaCl2 10 mM).

[3] = tested on: release of TNF from the peritoneal macrophages of mice stimulated by LPS; assay: Inhibition of the production of TNF in vitro; format: cell-based; conditions: Peritoneal macrophage; mouse peritoneal macrophages, LPS 100 ng/ml; read-out: C150 (μM) TNF
Procedure: The capacity of the compounds according to this invention to inhibit the release of TNF was determined from the peritoneal macrophages of mice stimulated by LPS (Lang, F., Robert, […], Petit, J. Y., J. Pharmacol. Exp. Ther., 275, 171-176, 1995). After an adhesion phase of 2 hours, the cells were treated for 1 hour with the compound to be tested at concentrations ranging between 10^-6 to 10^-9 M (the inhibitor is dissolved in DMSO at 10^-2 M, then at 5.10^-3 M in RPMI 1640 with 5% SVF, then diluted successively by tenths in the same medium), then stimulated by the addition of LPS (100 ng/ml in final concentration). Three hours later, the biological activity of the TNF in the supernatants was determined by a cytotoxicity test using the murine stock L929 in accordance with the operating procedure described by Band, G., Lin, […]., Evans, C. H. (Bioch. Biophys. Acta, 1134, 309-318, 1982). The pg/ml concentration of the TNF of the samples was determined from a murine αTNF standard curve, thus making it possible to define the inhibiting concentration […] of the compounds studied.

[4] = target: 92 kDa gelatinase of human origin (Homo sapiens, UniProt P14780); assay: Activity on gelatinase, radiomarked gelatin; format: biochemical; conditions: test performed with radiomarked gelatin; read-out: C150 (nM) gelatinase 92 kDa*
92 kDa gelatinase of human origin, sequence (P14780 94-707): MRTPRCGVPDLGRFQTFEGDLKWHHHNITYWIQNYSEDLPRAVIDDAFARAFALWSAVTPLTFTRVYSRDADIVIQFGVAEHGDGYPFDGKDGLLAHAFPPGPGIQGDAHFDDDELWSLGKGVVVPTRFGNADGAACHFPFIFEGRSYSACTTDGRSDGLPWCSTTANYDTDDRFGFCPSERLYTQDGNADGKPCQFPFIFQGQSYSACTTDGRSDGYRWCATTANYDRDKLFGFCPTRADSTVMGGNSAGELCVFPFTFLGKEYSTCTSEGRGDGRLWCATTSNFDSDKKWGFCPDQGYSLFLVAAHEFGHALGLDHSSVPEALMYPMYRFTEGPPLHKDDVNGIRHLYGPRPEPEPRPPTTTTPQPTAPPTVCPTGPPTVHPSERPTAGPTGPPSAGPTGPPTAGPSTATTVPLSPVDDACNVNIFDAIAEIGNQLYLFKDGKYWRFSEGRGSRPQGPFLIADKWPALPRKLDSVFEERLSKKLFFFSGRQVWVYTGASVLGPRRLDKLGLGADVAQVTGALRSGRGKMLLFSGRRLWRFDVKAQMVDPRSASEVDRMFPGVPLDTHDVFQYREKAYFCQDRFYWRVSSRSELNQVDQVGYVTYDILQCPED
Procedure: The anti-gelatinase activity of the compounds according to the invention also was determined on 92 kDa or 72 kDa gelatinase of human origin, in accordance with the operating mode described by Harris, E. D., Krane, S. M.; (Biochem. Biophys. Acta, 258, 566-576, 1972).
(§1) The gelatinase was incubated at 37° C. for 16 hours with radiomarked gelatin, and its activity was determined by the release of the soluble peptides produced by the enzymatic breakdown of the gelatin. The inhibiting concentration C150 for each compound was determined by measurement of the activity of the enzyme in the presence of the inhibitor at a concentration ranging between 10^−7 and 10^−12 M (the inhibitor is dissolved in the same manner as for collagenase).

[5] = target: stromelysine of human origin (Homo sapiens, UniProt P08254); assay: Activity on stromelysine; format: biochemical; conditions: radiomarked transferrin, 37° C., 16 hours; read-out: C150 (nM) stromelysine
stromelysine of human origin, sequence (P08254 100-477): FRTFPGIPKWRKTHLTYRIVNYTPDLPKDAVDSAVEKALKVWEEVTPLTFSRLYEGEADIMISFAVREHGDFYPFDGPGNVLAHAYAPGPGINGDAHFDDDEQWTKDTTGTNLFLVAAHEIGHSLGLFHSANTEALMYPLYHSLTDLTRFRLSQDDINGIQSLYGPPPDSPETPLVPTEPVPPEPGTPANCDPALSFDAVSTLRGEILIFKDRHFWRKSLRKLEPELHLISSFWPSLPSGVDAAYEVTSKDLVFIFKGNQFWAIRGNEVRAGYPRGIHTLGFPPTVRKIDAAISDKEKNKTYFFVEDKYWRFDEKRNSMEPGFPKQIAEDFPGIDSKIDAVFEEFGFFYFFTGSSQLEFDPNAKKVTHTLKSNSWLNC
Procedure: as §1, with “stromelysine” for “gelatinase”, “transferrin,” for “gelatin,”, “transferrin.” for “gelatin.”

[6] = tested on: metalloproteinase (MMP); conditions: Bioorg. Med. Chem. Letters (1996), 6, 1719-1724; cited from earlier work

IC50 [1] [nM] | IC50 [2] [nM] | IC50 [3] [µM] | IC50 [4] [nM] | IC50 [5] [nM] | melting point | Compound | activity on gem disubstitution, versus compound VII [6]
6.7 | 50 | 3.2 | 54 | > 1000 |  | CNC(=O)[C@H](Cc1ccc(Cl)cc1)NC(=O)[C@](O)(CC(C)C)[C@H](O)C(=O)NO [Example 3, N-2 (S) [(S) hydroxy (S) hydroxycarbamoylmethyl] 2(S) hydroxy 4-methyl pentanoyl L-4-chlorophenylalanine N-methylamide] | 
1.6 | 36 |  | 10 | 29 | 174.2 °C (dec.) | CNC(=O)[C@H](Cc1ccccc1)NC(=O)[C@](O)(CC(C)C)[C@H](C)C(=O)NO [Example 4, N-2(S)[1(S)(hydroxycarbamoyl)ethyl] 2(S) hydroxy4-methyl pentanoyl L-phenyl alanine N-methylamide] | 
1.6 | 11 | 2.2 | 2 | 50 |  | CNC(=O)[C@H](Cc1ccc(N)cc1)NC(=O)[C@](O)(CC(C)C)[C@H](C)C(=O)NO [Example 9, N-2(S)[1(S) (hydroxycarbamoyl) 1(S)ethyl]2-(S) hydroxy-4-methyl pentanoyl L-4-amino phenylalanine N-methylamide] | 
2 | 10 | 0.61 | 2 | 37 | 214 °C (dec.) | CNC(=O)[C@H](Cc1ccc(Br)cc1)NC(=O)[C@](O)(CC(C)C)[C@H](C)C(=O)NO [Example 11, N-2(S)[-1(S)(hydroxycarbamoyl)-1 ethyl]-2(S) hydroxy 4-methyl pentanoyl L-4-bromophenylalanine N-methylamide] | 
1.6 | 10 | 0.15 | 0.005 | 20 |  | CSCCNC(=O)[C@H](Cc1ccc(Cl)cc1)NC(=O)[C@](O)(CC(C)C)[C@H](C)C(=O)NO [Example 13, N-2(S)[-1-(S)(hydroxycarbamoyl)-1 ethyl]-2(S) hydroxy-4-methylpentanoylL-4-chlorophenylalanine N-(2 methylthio-1-ethyl) amide] | 
0.3 | 2 | 0.4 | 0.2 | 12 |  | CNC(=O)[C@H](Cc1ccc(I)cc1)NC(=O)[C@](O)(CC(C)C)[C@H](C)C(=O)NO [Example 14, N-2(S)[1(S) hydroxycarbamoyl-1 ethyl]-2(S) hydroxy 4 methyl pentanoyl L-4-iodophenylalanine N-methylamide] | 
1.3 | 32 | 4.5 | 0.001 | 38 |  | CSCCNC(=O)[C@H](Cc1ccc(I)cc1)NC(=O)[C@](O)(CC(C)C)[C@H](C)C(=O)NO [Example 15, N-2(S)[1(S) hydroxycarbamoyl-1 ethyl]2(S) hydroxy 4-methylpentanoyl L-4-iodophenylalanine N-(2 methylthio-1-ethyl) amide] | 
1.2 | 14 | 0.6 | 2 |  | 186.5 °C | CNC(=O)[C@H](Cc1ccc(F)cc1)NC(=O)[C@](O)(CC(C)C)[C@H](C)C(=O)NO [Example 16, N-2(S)[1(S)hydroxycarbamoyl-1 ethyl]-2(S) hydroxy 4-methylpentanoyl L-4-fluorophenylalanine N-methylamide] | 
0.4 | 2 | ≤ 0.14 | 0.002 | 6 | 216 °C (dec.) | CNC(=O)[C@H](Cc1ccc(Cl)c(Cl)c1)NC(=O)[C@](O)(CC(C)C)[C@H](C)C(=O)NO [Example 18, N-2(S)[1(S)hydroxycarbamoyl-1 ethyl]-2 (S) hydroxy 4-methylpentanoyl L-3,4-dichlorophenylalanine N-methylamide] | 
13 | 26 |  | 80 |  | 199 °C (dec.) | CNC(=O)[C@H](Cc1ccc(OC)cc1)NC(=O)[C@](O)(CC(C)C)[C@H](O)C(=O)NO [Example 29] | 
 | 11 | 3.6 | 7 | > 1000 | 194.1 °C | CNC(=O)[C@H](Cc1ccc(Cl)c(Cl)c1)NC(=O)[C@](O)(CC(C)C)[C@H](O)C(=O)NO [Example 30] | 
 |  |  |  |  |  | CNC(=O)[C@H](Cc1ccc(OC)cc1)NC(=O)C1(CC(=O)NO)CCc2ccccc21 (stereo partly drawn) [IX] | significant loss of activity
 |  |  |  |  |  | CNC(=O)[C@H](Cc1ccc(OC)cc1)NC(=O)C(C)(CC(=O)NO)c1ccccc1 (stereo partly drawn) [VIII] | significant loss of activity
0.6 | 5 | 0.14 | 7 | 10 |  | CNC(=O)[C@H](Cc1ccc(OC)cc1)NC(=O)[C@H](CC(C)C)[C@H](C)C(=O)NO [drawing 111, reference compound] | 
